Measurements taken from ChEMBL document CHEMBL1201862, “PubChem BioAssay data set” (2004).
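Growth conditions: 96-well plates. Treatment: test compound, 48 hours, 5 concentrations. Analysis: linear interpolation between bracketing concentrations; unreached endpoints set to highest concentration. Here, GI50 denotes the concentration required for 50% inhibition of growth.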 Active and inactive are the calls of the source. No stated cut-off is given here; in the data, active = GI50 up to about 1.1 µM and inactive = higher.

What was measured:
Experiment in all cases: NCI-60 cell line screen, 48 h
[1] = system: CAKI-1
[2] = system: CCRF-CEM
[3] = system: HT-29
[4] = system: MDA-MB-435
[5] = system: RXF 393
[6] = system: Malme-3M
[7] = system: OVCAR-8
[8] = system: Hs-578T
[9] = system: UACC-62
[10] = system: SF-268
[11] = system: 786-0
[12] = system: UO-31
[13] = system: MDA-N
[14] = system: MCF7
[15] = system: T47D
[16] = system: SK-OV-3
[17] = system: OVCAR-5
[18] = system: SN12C
[19] = system: DU-145
[20] = system: SNB-75
[21] = system: BT-549
[22] = system: SNB-19
[23] = system: NCI-H460
[24] = system: HCT-15
[25] = system: RPMI-8226
[26] = system: HOP-62
[27] = system: UACC-257
[28] = system: K562
[29] = system: A549
[30] = system: NCI-H226
[31] = system: LOX IMVI
[32] = system: MOLT-4
[33] = system: SF-539
[34] = system: HCT-116
[35] = system: MDA-MB-231
[36] = system: SK-MEL-5
[37] = system: HOP-92
[38] = system: SW-620
[39] = system: EKVX
[40] = system: IGROV-1
[41] = system: HL-60
[42] = system: OVCAR-4
[43] = system: OVCAR-3
[44] = system: A498
[45] = system: SK-MEL-28
[46] = system: COLO 205
[47] = system: U-251
[48] = system: PC-3
[49] = system: NCI-H522
[50] = system: NCI/ADR-RES
[51] = system: M14
[52] = system: KM12
[53] = system: SR
[54] = system: TK-10
[55] = system: SF-295
[56] = system: SK-MEL-2
[57] = system: ACHN
[58] = system: HCC 2998
[59] = system: NCI-H23

With `O=C(/C=C/c1ccc([N+](=O)[O-])cc1)c1nc2ccccc2[nH]1` the GI50 [1] was 4.23 µM (inactive), the GI50 [2] was 20 µM (inactive) and the GI50 [3] was 38.5 µM (inactive). For the same compound, the GI50 [4] was > 72.3 µM (inactive), the GI50 [5] was 40.8 µM (inactive) and the GI50 [6] was > 100 µM (inactive). For the same compound, the GI50 [7] was > 70.5 µM (inactive), the GI50 [8] was > 45.8 µM (inactive) and the GI50 [9] was 5.89 µM (inactive). For the same compound, the GI50 [10] was 39.4 µM (inactive), the GI50 [11] was 27.4 µM (inactive) and the GI50 [12] was > 69.8 µM (inactive). The GI50 [13] was 72.1 µM (inactive), the GI50 [14] was 2.21 µM (inactive) and the GI50 [15] was 29.2 µM (inactive). The GI50 [16] was > 100 µM (inactive), the GI50 [17] was 3.54 µM (inactive) and the GI50 [18] was > 100 µM (inactive). The GI50 [19] was 97.3 µM (inactive), the GI50 [20] was 45.3 µM (inactive) and the GI50 [21] was > 62.8 µM (inactive). For the same compound, the GI50 [22] was > 93.3 µM (inactive), the GI50 [23] was 11.4 µM (inactive) and the GI50 [24] was 33 µM. For the same compound, the GI50 [25] was 5.73 µM (inactive), the GI50 [26] was > 34.2 µM (inactive) and the GI50 [27] was 9.08 µM (inactive). For the same compound, the GI50 [28] was 3.66 µM (inactive), the GI50 [29] was > 45.9 µM (inactive) and the GI50 [30] was 1.05 µM (active). The GI50 [31] was 24.3 µM (inactive), the GI50 [32] was 25.2 µM (inactive) and the GI50 [33] was 26.9 µM (inactive). The GI50 [34] was 1.88 µM (inactive), the GI50 [35] was 26.9 µM (inactive) and the GI50 [36] was 52.2 µM (inactive). The GI50 [37] was 45.5 µM (inactive), the GI50 [38] was 26.2 µM (inactive) and the GI50 [39] was 61.5 µM (inactive). The GI50 [40] was 1.68 µM (inactive), the GI50 [41] was 5.2 µM (inactive) and the GI50 [42] was > 66.1 µM (inactive). The GI50 [43] was 9.44 µM (inactive), the GI50 [44] was 1.73 µM (inactive) and the GI50 [45] was > 100 µM (inactive). The GI50 [46] was 58.7 µM (inactive), the GI50 [47] was 13.2 µM (inactive) and the GI50 [48] was > 64.4 µM (inactive). For the same compound, the GI50 [49] was 32.9 µM (inactive), the GI50 [50] was > 48.2 µM (inactive) and the GI50 [51] was > 88.9 µM (inactive). For the same compound, the GI50 [52] was 29.9 µM (inactive), the GI50 [53] was 2.49 µM (inactive) and the GI50 [54] was 3.57 µM (inactive). For the same compound, the GI50 [55] was > 100 µM (inactive), the GI50 [56] was > 77.8 µM (inactive) and the GI50 [57] was 74.3 µM (inactive).

With `Nc1ccn([C@H]2CO[C@@H](CO)O2)c(=O)n1` the GI50 [1] was 0.222 µM (active), the GI50 [2] was 0.238 µM (active) and the GI50 [3] was 15 µM (inactive). The GI50 [4] was 20.8 µM (inactive), the GI50 [5] was 1.83 µM (inactive) and the GI50 [6] was 62.2 µM (inactive). For the same compound, the GI50 [7] was 1.51 µM (inactive), the GI50 [8] was > 100 µM (inactive) and the GI50 [9] was 2.37 µM (inactive). The GI50 [10] was 11.4 µM (inactive), the GI50 [11] was 2.87 µM (inactive) and the GI50 [12] was 1.57 µM (inactive). The GI50 [13] was 17.4 µM (inactive), the GI50 [14] was 1.48 µM (inactive) and the GI50 [15] was > 35.6 µM (inactive). The GI50 [16] was 3.77 µM (inactive), the GI50 [17] was 27.9 µM (inactive) and the GI50 [18] was 1.95 µM (inactive). The GI50 [19] was 0.0658 µM (active), the GI50 [20] was > 100 µM (inactive) and the GI50 [21] was 32.7 µM (inactive). For the same compound, the GI50 [22] was 4.26 µM (inactive), the GI50 [23] was 1.58 µM (inactive) and the GI50 [24] was 5.4 µM. For the same compound, the GI50 [58] was 33.7 µM (inactive), the GI50 [25] was > 94 µM (inactive) and the GI50 [26] was 1.67 µM (inactive). The GI50 [27] was 97.7 µM (inactive), the GI50 [28] was 26.1 µM (inactive) and the GI50 [29] was 1.35 µM (inactive). For the same compound, the GI50 [30] was 39.4 µM (inactive), the GI50 [31] was 0.804 µM (active) and the GI50 [59] was 15.1 µM (inactive). The GI50 [32] was 0.28 µM (active), the GI50 [33] was 4.46 µM (inactive) and the GI50 [34] was 1.39 µM (inactive). The GI50 [35] was > 55.7 µM (inactive), the GI50 [36] was 18.9 µM (inactive) and the GI50 [37] was 1.82 µM (inactive). The GI50 [38] was > 56.6 µM (inactive), the GI50 [39] was > 55.8 µM (inactive) and the GI50 [40] was 74 µM (inactive). For the same compound, the GI50 [41] was 0.252 µM (active), the GI50 [42] was > 100 µM (inactive) and the GI50 [43] was > 71.6 µM (inactive). For the same compound, the GI50 [45] was 15.7 µM (inactive), the GI50 [46] was 83 µM (inactive) and the GI50 [47] was 10.5 µM (inactive). The GI50 [48] was 1.39 µM (inactive), the GI50 [49] was 7.03 µM (inactive) and the GI50 [50] was 3.88 µM (inactive). The GI50 [51] was 0.83 µM (active), the GI50 [52] was > 100 µM (inactive) and the GI50 [53] was 1.49 µM (inactive). For the same compound, the GI50 [54] was > 100 µM (inactive), the GI50 [55] was 1.2 µM (inactive) and the GI50 [56] was > 100 µM (inactive). For the same compound, the GI50 [57] was 0.106 µM (active).

`Nc1nc(=O)c2cc(NCc3ccc(C(=O)NC(CCC(=O)O)C(=O)O)cc3)ccc2[nH]1` (stereo not drawn) was tested, and the GI50 [1] was 34.4 µM (inactive), the GI50 [2] was > 100 µM (inactive) and the GI50 [3] was > 100 µM (inactive). For the same compound, the GI50 [4] was > 100 µM (inactive), the GI50 [5] was > 100 µM (inactive) and the GI50 [6] was > 100 µM (inactive). For the same compound, the GI50 [7] was 68.2 µM (inactive), the GI50 [8] was > 100 µM (inactive) and the GI50 [9] was 45.9 µM (inactive). For the same compound, the GI50 [10] was 59 µM (inactive), the GI50 [11] was > 100 µM (inactive) and the GI50 [12] was 15.1 µM (inactive). The GI50 [13] was > 100 µM (inactive), the GI50 [14] was 6.56 µM (inactive) and the GI50 [15] was > 100 µM (inactive). The GI50 [16] was > 100 µM (inactive), the GI50 [17] was > 100 µM (inactive) and the GI50 [18] was 85.5 µM (inactive). For the same compound, the GI50 [19] was > 100 µM (inactive), the GI50 [20] was > 100 µM (inactive) and the GI50 [21] was > 100 µM (inactive). For the same compound, the GI50 [22] was > 100 µM (inactive), the GI50 [23] was 50 µM (inactive) and the GI50 [24] was > 100 µM. For the same compound, the GI50 [58] was 39.8 µM (inactive), the GI50 [25] was > 100 µM (inactive) and the GI50 [26] was > 100 µM (inactive). For the same compound, the GI50 [27] was > 100 µM (inactive), the GI50 [28] was > 100 µM (inactive) and the GI50 [29] was 80.7 µM (inactive). The GI50 [30] was > 100 µM (inactive), the GI50 [31] was 14.1 µM (inactive) and the GI50 [59] was > 100 µM (inactive). The GI50 [32] was > 100 µM (inactive), the GI50 [33] was 6.65 µM (inactive) and the GI50 [34] was > 100 µM (inactive). For the same compound, the GI50 [35] was > 100 µM (inactive), the GI50 [36] was > 100 µM (inactive) and the GI50 [37] was > 100 µM (inactive). For the same compound, the GI50 [38] was > 100 µM (inactive), the GI50 [39] was > 100 µM (inactive) and the GI50 [40] was > 100 µM (inactive). The GI50 [41] was 21.4 µM (inactive), the GI50 [42] was > 100 µM (inactive) and the GI50 [43] was > 100 µM (inactive). The GI50 [45] was > 100 µM (inactive), the GI50 [46] was > 100 µM (inactive) and the GI50 [47] was > 100 µM (inactive). For the same compound, the GI50 [48] was > 100 µM (inactive), the GI50 [49] was > 100 µM (inactive) and the GI50 [50] was > 100 µM (inactive). For the same compound, the GI50 [51] was 20.8 µM (inactive), the GI50 [52] was > 100 µM (inactive) and the GI50 [53] was 23.3 µM (inactive). The GI50 [54] was > 100 µM (inactive), the GI50 [55] was 61.8 µM (inactive) and the GI50 [56] was > 100 µM (inactive). For the same compound, the GI50 [57] was 4.31 µM (inactive).
